The values below come from patent US8193238B2, “Inhibition of microtubule protrusion in cancer cells” (University of Maryland, Baltimore, priority 2006, dated 2012).

In test [1] the test system is EpH4-Bcl2 cells. Briefly: Cell-substratum attachment assay. It counts as cell-based, mouse. The note with it: for attachment of cells to tissue culture surfaces: EpH4-Bcl2 (B19), 1 hr in suspension with inhibitor, then replated. The procedure: (§1) In FIG. 6A, EpH4-Bcl2 cells were suspended over agarose and treated with inhibitors as above. Following treatment, cells were plated into 0.3% methylcellulose media over agarose and the rate of cell-cell attachment was followed by Hoescht DNA staining. […] Similar results were found in three independent experiments. In FIG. 6B, EpH4-Bcl2 cells suspended over agarose for one hour in DMEM or DMEM containing LA (5 μM), Colchicine (1 μM), or the combination. Reattachment of these cells to either uncoated tissue culture plates or those pre-coated with laminin was followed by XTT cell viability assay. Values represent mean+S.D. of raw XTT values of three separate experiments.
Equivalent numbers of B19 cells were suspended over 6-well plates coated in 2% agarose in serum-free media containing 5 μM Latrunculin-A (LA; BioMol, Plymouth Meeting, Pa.), 100 μM colchicine (Col; Sigma, St. Louis, Mo.), 5 μg/ml nocodazole (Noc), or 1 μg/ml vinblastine (VinB; Sigma) for a duration of 1 hr at 37° C. Cells were collected by centrifugation (1000 rpm×5 min) and drug containing media was aspirated. Cells were resuspended in EpH4 serum-containing growth media and aliquoted out into 24 wells (8 timepoints×3 replicates) of a 96-well clear bottom black plate. After plating, cells were allowed to attach for duration of 15 min, 45 min, 1.5 hr, 2 hr, 3 hr, 4 hr, 5 hr, and 24 hr at which point the media was aspirated from the replicate wells, washed twice in PBS, and fresh growth media was replaced at each timepoint. After 24 hr, all wells were aspirated and cells were incubated in growth media containing Hoescht 33342 (1:5000) for 30 min at 37° C. to label all attached cells. Fluorescence was measured using a Biotek Synergy HT Multi-Detection Microplate Reader (Winooski, Vt.) at excitation wavelength 360 nm and an emission filter of 460 nm followed by subsequent analysis using the KC4 Data Analysis software. The percentage of cell attachment for each treatment exposure was calculated as the RFU at each timepoint divided by the RFU at 24 h (maximum attachment). The standard deviations of triplicates at each timepoint are shown.
(§2) To determine if these microtubule protrusions influence the ability of cells to form attachments, the cells were treated with inhibitors of actin or tubulin polymerization and assessed both cell-cell and cell-substratum attachment (FIG. 6). […] Induction of such nonspecific attachment activity in detached mammary epithelial cells could promote tumor cell dissemination, particularly when apoptotic resistance allows this response to continue for extended periods.

Test [2] has as its system detached mammary epithelial cells. Briefly: Protrusions of detached mammary epithelial cells, general statements. The test is classed as cell-based, human and mouse. The procedure:
Time-lapse video microscopy of detached mammary epithelial cells detected the extension of long, dynamic protrusions of the plasma membrane, and the present inventors have characterized the cytoskeletal mechanism underlying this novel observation. […] This response may be relatively short-lived, in specific embodiments, since mammary epithelial cells die by apoptosis within about 24 hours in suspension. However, cell lines that resist apoptosis through expression of either Bcl-2 or Bcl-xL will persistently form protrusions. Previous studies by the inventors indicate that such apoptotically-resistant cell lines will not form tumors in mice and lie dormant in distant tissues, in specific embodiments of the invention. […] These microtubule processes can extend more than 3 times the cell diameter, and undergo a rapid probing motion more than once per second. Formation of these microtubule protrusions is necessary for efficient cell-cell and cell-substratum attachment. In particular embodiments of the invention, this inherent microtubule response in detached mammary epithelial cells provides at least some of the invasive characteristics of breast cancer, independent of any tumor-specific genetic alteration, for example.
Breast tumor cells enter the bloodstream long before the development of clinically evident metastasis. However, the early presence of such bloodborne cells predicts poor patient outcome. Nearly 90% of human breast tumors arise as carcinomas from mammary epithelial cells, so it is important to characterize how these cells respond to the detached conditions that they would experience in the bloodstream. In the present invention, mammary epithelial cell lines produce long and dynamic protrusions of the plasma membrane when detached. Although human and mouse mammary epithelial cell lines die by apoptosis within 16 hours of detachment, this protrusive response persists for days in cells overexpressing either Bcl-2 or Bcl-xL, for example. […] Since bloodborne metastasis depends on both cell-cell and cell-matrix attachment, microtubule-based protrusions in detached mammary epithelial cells provide a novel target that could influence the metastatic spread of breast tumors.
Detachment-induced increases in Glu-tubulin could promote plasma membrane protrusions of microtubules by preventing efficient capture at the actin cortex. […] Therefore, our current model is that detachment increases stabilized microtubules enriched in Glu-tubulin, while decreased actin polymerization simply promotes extension of these microtubule protrusions.

Test [3] has as its system EpH4-Bcl2 cells. Briefly: Cell-cell attachment assay. The test is classed as cell-based, mouse. As to conditions: EpH4-Bcl2 in 0.3% methylcellulose over agarose, 5 hours. The procedure: as §1
B19 cells were seeded onto 10 cm dishes until 80% confluency. The media was aspirated and cells were incubated in fresh growth media containing Hoescht 33342 (1:5000) for 30 min at 37° C. to label all attached cells. The cells were washed twice in PBS, detached by trypsinization, and an equivalent number of cells were resuspended in serum-free media containing 0.3% methylcellulose with either 5 μM Latrunculin A, 100 μM Colchicine, 1 μg/ml vinblastine, or 5 μg/ml nocodazole and plated over 2% agarose-coated 24-well plates. The progression of cell-cell adhesion over time was visualized by the EpiChemi3 Imaging System (UVP, Inc.; Upland, Calif.) using an excitation wavelength of 365 nm and a blue band pass filter. Images were obtained with an attached Hamamatsu CCD camera (Hamamatsu Photonics, Hamamatsu City, Japan) and analyzed with UVP Labworks Image Acquisition and Analysis Software v. 4.6.
as §2

For a further test, the system named is EpH4 cells. Put plainly: Protrusions in suspended cells treated with cytoskeletal inhibitors (EpH4). The test is classed as cell-based, mouse. The note with it: EpH4, 15 minutes of suspension; Latrunculin-A 5 μM, Colchicine 1 μM. The procedure: (§3) In FIG. 2A, after 15 minutes of suspension, protrusions in EpH4 and MCF10A cells are quite small (Control, white arrows). […] In FIG. 2B, populations of live, suspended cells were scored blindly for two or more protrusions longer than the cell radius. Each bar represents the mean+S.D. for three experiments in which at least 100 single cells were counted.
EpH4 cells were suspended in either DMEM (Control) or media containing 5 μM Latrunculin-A (LA), 1 μM Colchicine or the combination of both drugs for 30 minutes. Cells were then spun onto glass coverslips and fluorescently stained for α-tubulin (green) and polymerized actin (red). Protrusions that are difficult to see by phase contrast are easily discernible with immunostaining for α-tubulin (white arrows). Protrusions contain little polymerized actin, except at points of concentration, which are often at the end (arrowhead).
EpH4 and B19 cells were suspended over 2% agarose coated plates to prevent attachment in either serum-free DMEM or media containing. Latrunculin-A (5 μM) to enhance protrusions. For co-staining of α-tubulin and actin, suspended cells were then centrifuged onto poly-L-lysine coated coverslips (280 g×5 min), fixed in 3.7% formaldehyde in PBS for 10 min, and permeablized with 0.1% Triton X-100 in PBS. Adhered cells were then stained for 1 hr at room temperature using FITC-conjugated anti-α-tubulin (1:200; Sigma), Alexa-594 phalloidin (1:100; Molecular Probes), and Hoescht 33342 (1:5000; Sigma).
(§4) In order to initially characterize the cytoskeletal mechanism underlying these protrusions, suspended cells were treated with inhibitors of actin and tubulin polymerization (FIG. 2). After 15 minutes of suspension, the protrusions in untreated EpH4 or MCF10A cells remain fairly short (FIG. 2, white arrows). These early protrusions can often be difficult to detect with phase-contrast microscopy, due to interfering light refraction from the plasma membrane. […] Protrusions were more easily visible with immunofluorescence than phase contrast microscopy (FIG. 3, white arrows). Although actin filament staining was generally low along the length of the protrusion, dense points of actin were often found at the end of protrusions (FIG. 3, arrowheads).

Test [4] has as its system MCF10A cells. Put plainly: Protrusions in suspended cells treated with cytoskeletal inhibitors (MCF10A). The test is classed as cell-based, human. As to conditions: MCF10A, 15 minutes of suspension; Latrunculin-A 5 μM, Colchicine 1 μM. The procedure:
as §3, §4
The nontumorigenic human mammary epithelial cell line (MCF10A) or the indicated human breast tumor cell lines were grown in suspension for 30-60 minutes, and protrusions were counted in random fields with phase-contrast microscopy. Values represent the mean±S.D. of three experiments in which at least 100 cells were counted. […] This effect was most apparent in the highly metastatic but exemplary Bt-474 and MDA-MB-231 cells (pictured, black arrows). The exemplary MCF10A cells show far fewer and shorter protrusions at the same time point (pictured, white arrows). Such protrusions are not observed in attached cells.

Test [5] concerns MCF10A cells. Put plainly: Chemical inhibition of Latrunculin-A-enhanced microtubule protrusions in suspended cells. The note with it: MCF10A in suspension, then LA 5 μM one hour; sodium orthovanadate 1 mM, S-Trityl-L-Cysteine 100 μM, TDZD-8 20 μM. It counts as cell-based, human. The procedure: MCF10A cells were placed into suspension in the presence of the indicated chemical inhibitors targeted at specific signaling pathways or the corresponding vehicle controls. Cells were then treated with the actin polymerization inhibitor, Latrunculin-A (LA, 5 μM) for one hour to enhance protrusions. […] Thus, protrusions can be reduced by chemical inhibition of specific signaling proteins.

A further test has as its system microtentacles. Put plainly: Microtentacle frequency after pretreatment with Okadaic Acid or Calyculin-A. The test is classed as cell-based. As to conditions: pretreated 1 h, suspended with or without Latrunculin-A. The procedure: In FIG. 35, cells were pretreated for 1 h with DMEM media alone (Control) or the indicated concentrations of either Okadaic Acid (OKA) […] or Calyculin-A (Cal-A) to promote vimentin disassembly. Cells were then suspended by trypsinization with or without addition of Latrunculin-A (LA) to enhance microtentacle frequency.

As to `CC[C@]1(O)C[C@@H]2CN(CCc3c([nH]c4ccccc34)[C@@](C(=O)OC)(c3cc4c(cc3OC)N(C)[C@H]3[C@@](O)(C(=O)OC)[C@H](OC(C)=O)[C@]5(CC)C=CCN6CC[C@]43[C@@H]65)C2)C1` [vinblastine], the “attachment of cells to tissue culture surfaces” value (“attachment of cells” below) in the test on EpH4-Bcl2 cells [1] is reported as “significantly delayed attachment”. Moreover, the protrusions entry in test [2] was “inhibited”. Further, in the test on EpH4-Bcl2 cells [3], the “cell-cell attachment (clustering)” value is recorded as “prevented efficient clustering”.

As to `CN[C@H]1CCc2cc(OC)c(OC)c(OC)c2-c2ccc(OC)c(=O)cc21` [colcemid], the protrusions entry in test [2] is listed as “inhibited”.

`COc1cc2c(c(OC)c1OC)-c1ccc(OC)c(=O)cc1[C@@H](NC(C)=O)CC2` [Colchicine]: the “attachment of cells” value with EpH4-Bcl2 cells [1] is recorded as “significantly delayed attachment”. Moreover, the “cell-surface attachment to uncoated or laminin-coated plates (XTT)” value with EpH4-Bcl2 cells [1] (EpH4-Bcl2 suspended one hour, LA 5 μM, Colchicine 1 μM) is “significantly prevents initial cell attachment”. Also, the protrusions entry in test [2] is listed as “inhibited”; in the test with EpH4 cells, “prevented protrusions”; with MCF10A cells [4], “prevented protrusions”. Further, in the test with EpH4-Bcl2 cells [3], the “cell-cell attachment (clustering)” value is recorded as “prevented efficient clustering”.

For `CCCCCC[C@@H]([C@@H](C)O)n1cnc2c(N)ncnc21` (racemic) [EHNA], the protrusions entry in the test with MCF10A cells [5] is recorded as “reduced protrusions, but these results were not statistically significant”.

As to `CC[C@]1(O)C[C@H]2CN(CCc3c([nH]c4ccccc34)[C@@](C(=O)OC)(c3cc4c(cc3OC)N(C=O)[C@H]3[C@@](O)(C(=O)OC)[C@H](OC(C)=O)[C@]5(CC)C=CCN6CC[C@]43[C@@H]65)C2)C1` [vincristine], the protrusions result in test [2] is reported as “inhibited”.

Turning to `C=C1[C@@H](O)[C@@H]2O[C@]3(CC[C@H](/C=C/[C@@H](C)[C@@H]4CC(C)=C[C@@]5(O[C@H](C[C@@](C)(O)C(=O)O)CC[C@H]5O)O4)O3)CC[C@H]2O[C@@H]1[C@@H](O)C[C@H](C)[C@H]1O[C@@]2(CCCCO2)CC[C@H]1C` [Okadaic acid], the figures for the microtentacles result in the test with microtentacles and in the test on microtentacles (listed as okadaic acid) were “reduce microtentacles significantly” and “reduces microtentacles”, respectively.

Regarding `COC[C@@H]([C@H](O)[C@H](O)C(=O)NCC[C@H](C)c1nc(/C=C/C[C@@H]2O[C@]3(C[C@@H](O)[C@@H]2C)O[C@H]([C@H](C[C@H](O)[C@H](C)[C@H](O)[C@H](C)/C=C(C)/C(C)=C/C=C/C(C)=C\C#N)OC)[C@H](OP(=O)(O)O)C3(C)C)co1)N(C)C` [Calyculin-A], the figures for the microtentacles result with microtentacles and in the test with microtentacles (listed as calyculin-A) were “reduce microtentacles significantly” and “reduces microtentacles”, respectively.

Regarding `[Na+].[Na+].[Na+].[O]=[V]([O-])([O-])[O-]` [sodium orthovanadate], the protrusions entry in the test with MCF10A cells [5] is on record as “significantly reduces protrusions”.

Take `COc1ccc(CNc2nc(NCc3ccc(OC)cc3)c3ncn(C(C)C)c3n2)cc1` [myoseverin]: the protrusions result in test [2] is reported as “inhibited”.

As for `COC(=O)Nc1nc2ccc(C(=O)c3cccs3)cc2[nH]1` [nocodazole], the “attachment of cells” value in the test with EpH4-Bcl2 cells [1] is given as “significantly delayed attachment”. Moreover, the protrusions entry in test [2] was “inhibited”. Also, in the test on EpH4-Bcl2 cells [3], the “cell-cell attachment (clustering)” value is given as “prevented efficient clustering”.

Turning to `N[C@@H](CSC(c1ccccc1)(c1ccccc1)c1ccccc1)C(=O)O` [S-Trityl-L-Cysteine], the protrusions entry in the test on MCF10A cells [5] is given as “significantly reduces protrusions”.
